# From patent US11110055B2, “Pharmaceutical formulations of tropomyosin related kinase (TRK) inhibitors” (Genzyme Corporation, priority 2014, dated 2021)
# Test: Physical stability and aqueous dissolution of monohydrate versus anhydrate form
# Format: physicochemical
stability in solution,aqueous dissolution compared to the anhydrate form,physical stability compared to the anhydrate form,SMILES
relatively unstable in solution,,,"COc1ccc(COc2ccc(Cn3c(N)nc4cc(-c5cnn(C)c5)cnc43)cc2OC)cc1 [GZ389988, 3-(3-methoxy-4-((4-methoxybenzyl)oxy)benzyl)-6-(1-methyl-1H-pyrazol-4-yl)-3H-imidazo[4,5-b]pyridin-2-amine]"
,slower aqueous dissolution,better physical stability,"COc1ccc(COc2ccc(Cn3c(N)nc4cc(-c5cnn(C)c5)cnc43)cc2OC)cc1 [GZ389988A, 3-(3-methoxy-4-((4-methoxybenzyl)oxy)benzyl)-6-(1-methyl-1H-pyrazol-4-yl)-3H-imidazo[4,5-b]pyridin-2-amine monohydrate]"
